From US20230122344A1, “ANTAGONISTS OF THE MUSCARINIC ACETYLCHOLINE RECEPTOR M4” (Vanderbilt University, priority 2019, published 2023)

Biological target: T1, Human M4 (Homo sapiens, UniProt P08173)
T1 construct: expressed in transfected cells; host or cells: CHO-K1 (ATCC), co-transfected with chimeric G protein Gqi5
T1 sequence (P08173 1-479): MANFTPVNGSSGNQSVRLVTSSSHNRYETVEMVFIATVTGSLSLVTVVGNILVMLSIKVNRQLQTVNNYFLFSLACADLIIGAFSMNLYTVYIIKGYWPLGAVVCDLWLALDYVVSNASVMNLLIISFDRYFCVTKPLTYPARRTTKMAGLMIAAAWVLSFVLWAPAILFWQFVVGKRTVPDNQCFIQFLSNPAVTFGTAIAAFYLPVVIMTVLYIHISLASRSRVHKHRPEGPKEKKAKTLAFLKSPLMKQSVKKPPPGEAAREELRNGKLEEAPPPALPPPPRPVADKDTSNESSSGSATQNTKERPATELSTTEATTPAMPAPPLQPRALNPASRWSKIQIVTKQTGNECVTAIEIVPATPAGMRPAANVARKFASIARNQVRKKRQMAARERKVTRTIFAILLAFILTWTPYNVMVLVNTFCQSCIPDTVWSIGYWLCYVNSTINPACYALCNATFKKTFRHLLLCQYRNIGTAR
Assay: mAChR M4 cell-based functional assay (calcium flux, antagonism of EC80 acetylcholine response)
Conditions: M4/Gqi5/CHO-K1 cells; for remaining activity at 30 µM: CHO-K1, % ACh maximum at 30 μM, read-out: Human M4 Emin; for IC50: decrease of response elicited by EC80 acetylcholine
Procedure: Human or rat M4 cDNA, along with the chimeric G protein Gqi5, were transfected into Chinese hamster ovary (CHO-K1) cells purchased from the American Type Culture Collection using Lipofectamine2000. M4/Gqi5/CHO cells were grown in Ham's F-12 medium containing 10% heat-inactivated fetal bovine serum (FBS), 20 mM HEPES, 500 μg/mL G418 sulfate, and 200 μg/mL Hygromycin B.
For high throughput measurement of agonist-evoked increases in intracellular calcium, CHO-K1 cells stably expressing muscarinic receptors were plated in growth medium lacking G418 and hygromycin at 15,000 cells/20 μL/well in Greiner 384-well black-walled, tissue culture (TC)-treated, clear-bottom plates (VWR). Cells were incubated overnight at 37° C. and 5% CO2. The next day, cells were washed using an ELX 405 (BioTek) with assay buffer; the final volume was then aspirated to 20 μL. Next, 20 μL of a 2.3 μM stock of Fluo-4/acetoxymethyl ester (Invitrogen, Carlsbad, Calif.), prepared as a 2.3 mM stock in DMSO and mixed in a 1:1 ratio with 10% (w/v) Pluronic F-127 and diluted in assay buffer, was added to the wells and the cell plates were incubated for 50 min at 37° C. and 5% CO2. Dye was removed by washing with the ELX 405 and the final volume was aspirated to 20 μL. Compound master plates were formatted in a 10 point concentration-response curve (CRC) format (1:3 dilutions) in 100% DMSO with a starting concentration of 10 or 1 mM using a BRAVO liquid handler (Agilent). Test compound CRCs were then transferred to daughter plates (240 nL) using the Echo acoustic plate reformatter (Labcyte, Sunnyvale, Calif.) and then diluted into assay buffer (40 μL) to a 2× stock using a Thermo Fisher Combi (Thermo Fisher Scientific, Waltham, Mass.).
Calcium flux was measured using the Functional Drug Screening System (FDSS) 6000 or 7000 (Hamamatsu Corporation, Tokyo, Japan) as an increase in the fluorescent static ratio. Compounds were applied to cells (20 μL, 2×) using the automated system of the FDSS at 2 seconds into the protocol and the data were collected at 1 Hz. At 143 s, 10 μL of an EC20 concentration of the muscarinic receptor agonist acetylcholine was added (5×), followed by the addition of 12 μL of an EC80 concentration of acetylcholine at the 268 s time point (5×). Agonist activity was analyzed as a concentration-dependent increase in calcium mobilization upon compound addition. Positive allosteric modulator activity was analyzed as a concentration-dependent increase in the EC20 acetylcholine response. Antagonist activity was analyzed as a concentration-dependent decrease in the EC80 acetylcholine response; for the purposes of the tables herein, an IC50 (inhibitory concentration 50) was calculated as a concentration-dependent decrease of the response elicited by an EC80 concentration of acetylcholine. Concentration-response curves were generated using a four-parameter logistical equation in XLFit curve fitting software (IDBS, Bridgewater, N.J.) for Excel (Microsoft, Redmond, Wash.) or Prism (GraphPad Software, Inc., San Diego, Calif.) or the Dotmatics software platform (Dotmatics, Bishop's Stortford, UK).
Compounds were synthesized as described above. Activity (IC50 and Emin) was determined in the mAChR M4 cell-based functional assay as described above and the data are shown in Table 2.

Structure (SMILES)	remaining activity at 30 µM [%]	IC50 [nM]	Human M4 Emin (% ACh maximum at 30 μM) [%]
Cc1c(Cl)nnc(N[C@H]2C[C@@H]3CN(CC4CCOCC4)C[C@@H]3C2)c1C#N [compound 65, 6-chloro-5-methyl-3-(((3aR,5s,6aS)-2-((tetrahydro-2H-pyran-4-yl)methyl)octahydrocyclopenta[c]pyrrol-5-yl)amino)pyridazine-4-carbonitrile]	8	2930	–
[2H]C([2H])(C1CCOCC1)N1C[C@H]2C[C@H](Nc3cc(C4(C(F)(F)F)CC4)c(-c4cc(F)cc(F)c4F)nn3)C[C@H]2C1 [compound 39, (3aR,5s,6aS)-2-((tetrahydro-2H-pyran-4-yl)methyl-d2)-N-(5-(1-(trifluoromethyl)cyclopropyl)-6-(2,3,5-trifluorophenyl)pyridazin-3-yl)octahydrocyclopenta[c]pyrrol-5-amine]	3	17.9	–
COc1cc(-c2cccc(F)c2)nnc1N[C@H]1C[C@@H]2CN(CC3CCOCC3)C[C@@H]2C1 [compound 1, (3aR,5s,6aS)-N-(6-(3-fluorophenyl)-4-methoxypyridazin-3-yl)-2-((tetrahydro-2H-pyran-4-yl)methyl)octahydrocyclopenta[c]pyrrol-5-amine]	5	10.8	–
[2H]C([2H])(C1CCOCC1)N1C[C@H]2C[C@H](Nc3nnc(-c4cc(F)ccc4C)cc3C3CC3)C[C@H]2C1 [compound 26, (3aR,5s,6aS)-N-(4-cyclopropyl-6-(5-fluoro-2-methylphenyl)pyridazin-3-yl)-2-((tetrahydro-2H-pyran-4-yl)methyl-d2)octahydrocyclopenta[c]pyrrol-5-amine]	3	263	–
[2H]C([2H])(C1CCOCC1)N1C[C@H]2C[C@H](Nc3cc(C)c(-c4cc(F)ccc4Cl)nn3)C[C@H]2C1 [compound 18, (3aR,5s,6aS)-N-(6-(2-chloro-5-fluorophenyl)-5-methylpyridazin-3-yl)-2-((tetrahydro-2H-pyran-4-yl)methyl-d2)octahydrocyclopenta[c]pyrrol-5-amine]	3	0.44	–
[2H]C([2H])(C1CCOCC1)N1C[C@H]2C[C@H](Nc3nnc(-c4cc(F)ccc4C)cc3C)C[C@H]2C1 [compound 20, (3aR,5s,6aS)-N-(6-(5-fluoro-2-methylphenyl)-4-methylpyridazin-3-yl)-2-((tetrahydro-2H-pyran-4-yl)methyl-d2)octahydrocyclopenta[c]pyrrol-5-amine]	3	0.54	–
[2H]C([2H])(C1CCOCC1)N1C[C@H]2C[C@H](Nc3nnc(-c4cc(F)ccc4C)c(C)c3C(F)(F)F)C[C@H]2C1 [compound 74, (3aR,5s,6aS)-N-(6-(5-fluoro-2-methylphenyl)-5-methyl-4-(trifluoromethyl)pyridazin-3-yl)-2-((tetrahydro-2H-pyran-4-yl)methyl-d2)octahydrocyclopenta[c]pyrrol-5-amine]	2	159	–
[2H]C([2H])(C1CCOCC1)N1C[C@H]2C[C@H](Nc3nnc(-c4cc(F)cc(F)c4F)c(C4CC4)c3C(F)(F)F)C[C@H]2C1 [compound 77, (3aR,5s,6aS)-N-(5-cyclopropyl-4-(trifluoromethyl)-6-(2,3,5-trifluorophenyl)pyridazin-3-yl)-2-((tetrahydro-2H-pyran-4-yl)methyl-d2)octahydrocyclopenta[c]pyrrol-5-amine]	2	83.5	–
[2H]C(C)(c1ccccn1)N1C[C@H]2C[C@H](Nc3cc(C(F)F)c(-c4cc(F)cc(F)c4F)nn3)C[C@H]2C1 (stereo partly drawn) [compound 51, (3aR,5s,6aS)-N-(5-(difluoromethyl)-6-(2,3,5-trifluorophenyl)pyridazin-3-yl)-2-(1-(pyridin-2-yl)ethyl-1-d)octahydrocyclopenta[c]pyrrol-5-amine]	2	35	–
Cn1cc2cc(-c3cc(C(F)F)c(N[C@H]4C[C@@H]5CN(CC6CCOCC6)C[C@@H]5C4)nn3)ccc2n1 [compound 83, (3aR,5s,6aS)-N-(4-(difluoromethyl)-6-(2-methyl-2H-indazol-5-yl)pyridazin-3-yl)-2-((tetrahydro-2H-pyran-4-yl)methyl)octahydrocyclopenta[c]pyrrol-5-amine]	5	2.3	–
[2H]C([2H])(C1CCOCC1)N1C[C@H]2C[C@H](Nc3nnc(-c4cc(F)ccc4C)c(C)c3C)C[C@H]2C1 [compound 63, (3aR,5s,6aS)-N-(6-(5-fluoro-2-methylphenyl)-4,5-dimethylpyridazin-3-yl)-2-((tetrahydro-2H-pyran-4-yl)methyl-d2)octahydrocyclopenta[c]pyrrol-5-amine]	2	0.92	–
Fc1cc(F)c(F)c(-c2nnc(N[C@H]3C[C@@H]4CN(CC5CCCOC5)C[C@@H]4C3)cc2C(F)F)c1 (single isomer, unassigned) [compound 49]	–	1.64	2
COc1cc(-c2cc(F)ccc2C)nnc1N[C@H]1C[C@@H]2CN(CC3CCOCC3)C[C@@H]2C1 [compound 7, (3aR,5s,6aS)-N-(6-(5-fluoro-2-methylphenyl)-4-methoxypyridazin-3-yl)-2-((tetrahydro-2H-pyran-4-yl)methyl)octahydrocyclopenta[c]pyrrol-5-amine]	9	6.84	–
CC1(CN2C[C@H]3C[C@H](Nc4nnc(-c5cc(F)ccc5F)cc4C(F)F)C[C@H]3C2)CCOCC1 [compound 79, (3aR,5s,6aS)-N-(4-(difluoromethyl)-6-(2,5-difluorophenyl)pyridazin-3-yl)-2-((4-methyltetrahydro-2H-pyran-4-yl)methyl)octahydrocyclopenta[c]pyrrol-5-amine]	4	110	–
Cc1cc(N[C@H]2C[C@@H]3CN(CC4CCOCC4)C[C@@H]3C2)nnc1-c1ccc2nn(C)cc2c1 [compound 15, (3aR,5s,6aS)-N-(5-methyl-6-(2-methyl-2H-indazol-5-yl)pyridazin-3-yl)-2-((tetrahydro-2H-pyran-4-yl)methyl)octahydrocyclopenta[c]pyrrol-5-amine]	3	1.1	–
[2H]C([2H])(C1CCOCC1)N1C[C@H]2C[C@H](Nc3nnc(-c4cc(F)ccc4C)cc3C3CCC3)C[C@H]2C1 [compound 31, (3aR,5s,6aS)-N-(4-cyclobutyl-6-(5-fluoro-2-methylphenyl)pyridazin-3-yl)-2-((tetrahydro-2H-pyran-4-yl)methyl-d2)octahydrocyclopenta[c]pyrrol-5-amine]	3	34.5	–
[2H]C([2H])(C1CCOCC1)N1C[C@H]2C[C@H](Nc3nnc(-c4cccc(F)c4)cc3C)C[C@H]2C1 [compound 21, (3aR,5s,6aS)-N-(6-(3-fluorophenyl)-4-methylpyridazin-3-yl)-2-((tetrahydro-2H-pyran-4-yl)methyl-d2)octahydrocyclopenta[c]pyrrol-5-amine]	3	1.22	–
